According to patent publication US20250145687A1, “MODIFIED LIGAND-GATED ION CHANNELS AND METHODS OF USE” (Howard Hughes Medical Institute, priority 2022, published 2025):
Like-named read-outs stand apart in the source and are kept apart here.

Key:
Type in all cases: cell-based
[1] = molecular target: T1, α7-5HT3 L131G, Q139L, Y217H (Homo sapiens, UniProt P36544, L131G/M226I/Q139L/T225I/Y217H); test: EC50 dose response, α7-5HT3 mutant; settings: read-out: EC50s (SEM) for additional mutations of α7^L131G, Q139L, Y217F -5HT3
T1 construct: expressed in transfected cells; host or cells: HEK 293

[2] = molecular target: T2, α7^L131G,Q139L,Y217F-5HT3 V154I, R155Y, W156N, S172A (Homo sapiens, UniProt P36544, L131G/M226I/Q139L/R155Y/S172A/T225I/V154I/W156N/Y217F); test: EC50 dose response, PSAM4-5HT3 with additional mutations; settings: read-out: EC50s (SEM) for additional mutations of α7^L131G, Q139L, Y217F -5HT3
T2 construct: expressed in transfected cells; host or cells: HEK 293

[3] = molecular target: T3, α7^L131G,Q139L,Y217F-5HT3 H163F (Homo sapiens, UniProt P36544, H163F/L131G/M226I/Q139L/T225I/Y217F); test: as above; settings: additional mutation H163F; read-out: EC50s (SEM) for additional mutations of α7^L131G, Q139L, Y217F -5HT3
T3 construct: expressed in transfected cells; host or cells: HEK 293

[4] = molecular target: T4, α7^L131G,Q139L,Y217F-5HT3 S172I (Homo sapiens, UniProt P36544, L131G/M226I/Q139L/S172I/T225I/Y217F); test: as above; settings: additional mutation S172I; read-out: EC50s (SEM) for additional mutations of α7^L131G, Q139L, Y217F -5HT3
T4 construct: expressed in transfected cells; host or cells: HEK 293

[5] = molecular target: T5, α7^L131G,Q139L,Y217F-5HT3 H163K (Homo sapiens, UniProt P36544, H163K/L131G/M226I/Q139L/T225I/Y217F); test: as above; settings: additional mutation H163K; read-out: EC50s (SEM) for additional mutations of α7^L131G, Q139L, Y217F -5HT3
T5 construct: expressed in transfected cells; host or cells: HEK 293

[6] = molecular target: T6, α7^L131G,Q139L,Y217F-5HT3 H163T, S172V (Homo sapiens, UniProt P36544, H163T/L131G/M226I/Q139L/S172V/T225I/Y217F); test: as above; settings: read-out: EC50s (SEM) for additional mutations of α7^L131G, Q139L, Y217F -5HT3
T6 construct: expressed in transfected cells; host or cells: HEK 293

[7] = molecular target: T7, α7^L131G,Q139L,Y217F-5HT3 H163A (Homo sapiens, UniProt P36544, H163A/L131G/M226I/Q139L/T225I/Y217F); test: as above; settings: additional mutation H163A; read-out: EC50s (SEM) for additional mutations of α7^L131G, Q139L, Y217F -5HT3
T7 construct: expressed in transfected cells; host or cells: HEK 293

[8] = molecular target: T8, α7^L131G,Q139L,Y217F-5HT3 S172V (Homo sapiens, UniProt P36544, L131G/M226I/Q139L/S172V/T225I/Y217F); test: as above; settings: additional mutation S172V; read-out: EC50s (SEM) for additional mutations of α7^L131G, Q139L, Y217F -5HT3
T8 construct: expressed in transfected cells; host or cells: HEK 293

[9] = molecular target: T9, α7^L131G,Q139L,Y217F-5HT3 H163V (Homo sapiens, UniProt P36544, H163V/L131G/M226I/Q139L/T225I/Y217F); test: as above; settings: additional mutation H163V; read-out: EC50s (SEM) for additional mutations of α7^L131G, Q139L, Y217F -5HT3
T9 construct: expressed in transfected cells; host or cells: HEK 293

[10] = molecular target: T10, α7-5HT3 L131G, Q139L, Y217V (Homo sapiens, UniProt P36544, L131G/M226I/Q139L/T225I/Y217V); test: EC50 dose response, α7-5HT3 mutant; settings: read-out: EC50s (SEM) for additional mutations of α7^L131G, Q139L, Y217F -5HT3
T10 construct: 5HT3 ion pore domain (fusion partner); expressed in transfected cells; HEK 293 is named only for the electrophysiology

[11] = molecular target: T11, α7^L131G,Q139L,Y217F-5HT3 H163S (Homo sapiens, UniProt P36544, H163S/L131G/M226I/Q139L/T225I/Y217F); test: EC50 dose response, PSAM4-5HT3 with additional mutations; settings: additional mutation H163S; read-out: EC50s (SEM) for additional mutations of α7^L131G, Q139L, Y217F -5HT3
T11 construct: expressed in transfected cells; host or cells: HEK 293

[12] = molecular target: T12, α7-5HT3 L131G, Q139L, W171F (Homo sapiens, UniProt P36544, L131G/M226I/Q139L/T225I/W171F); test: EC50 dose response, α7-5HT3 mutant; settings: read-out: EC50s (SEM) for additional mutations of α7^L131G, Q139L, Y217F -5HT3
T12 construct: expressed in transfected cells; host or cells: HEK 293

[13] = molecular target: T13, α7-5HT3 L131G, Q139L, Y217A (Homo sapiens, UniProt P36544, L131G/M226I/Q139L/T225I/Y217A); test: EC50 dose response, α7-5HT3 mutant; settings: read-out: EC50s (SEM) for additional mutations of α7^L131G, Q139L, Y217F -5HT3
T13 construct: expressed in transfected cells; host or cells: HEK 293

[14] = molecular target: T14, α7^L131G,Q139L,Y217F-5HT3 W156N (Homo sapiens, UniProt P36544, L131G/M226I/Q139L/T225I/W156N/Y217F); test: cell-based
T14 construct: expressed in transfected cells; host or cells: HEK 293

[15] = molecular target: T15, α7^L131G,Q139L,Y217F-5HT3 W156N, H163T (Homo sapiens, UniProt P36544, H163T/L131G/M226I/Q139L/T225I/W156N/Y217F); test: EC50 dose response, PSAM4-5HT3 with additional mutations; settings: read-out: EC50s (SEM) for additional mutations of α7^L131G, Q139L, Y217F -5HT3
T15 construct: expressed in transfected cells; host or cells: HEK 293

[16] = molecular target: T16, α7^L131G,Q139L,Y217F-5HT3 V154I, R155Y, W156N (Homo sapiens, UniProt P36544, L131G/M226I/Q139L/R155Y/T225I/V154I/W156N/Y217F); test: as above; settings: read-out: EC50s (SEM) for additional mutations of α7^L131G, Q139L, Y217F -5HT3
T16 construct: expressed in transfected cells; host or cells: HEK 293

[17] = molecular target: T17, α7^L131G,Q139L,Y217F-5HT3 H163R (Homo sapiens, UniProt P36544, H163R/L131G/M226I/Q139L/T225I/Y217F); test: as above; settings: additional mutation H163R; read-out: EC50s (SEM) for additional mutations of α7^L131G, Q139L, Y217F -5HT3
T17 construct: expressed in transfected cells; host or cells: HEK 293

[18] = molecular target: T18, α7^L131G,Q139L,Y217F-5HT3 H163T, S172A (Homo sapiens, UniProt P36544, H163T/L131G/M226I/Q139L/S172A/T225I/Y217F); test: as above; settings: read-out: EC50s (SEM) for additional mutations of α7^L131G, Q139L, Y217F -5HT3
T18 construct: expressed in transfected cells; host or cells: HEK 293

[19] = molecular target: T19, α7^L131G,Q139L,Y217F-5HT3 S172A (Homo sapiens, UniProt P36544, L131G/M226I/Q139L/S172A/T225I/Y217F); test: as above; settings: additional mutation S172A; read-out: EC50s (SEM) for additional mutations of α7^L131G, Q139L, Y217F -5HT3
T19 construct: expressed in transfected cells; host or cells: HEK 293

[20] = molecular target: T20, α7^L131G,Q139L,Y217F-5HT3 V154I, R155Y, W156N, S172V (Homo sapiens, UniProt P36544, L131G/M226I/Q139L/R155Y/S172V/T225I/V154I/W156N/Y217F); test: as above; settings: read-out: EC50s (SEM) for additional mutations of α7^L131G, Q139L, Y217F -5HT3
T20 construct: expressed in transfected cells; host or cells: HEK 293

[21] = molecular target: T21, PSAM4-5HT3 (α7-5HT3^L131G,Q139L,Y217F) (Homo sapiens, UniProt P36544, L131G/M226I/Q139L/T225I/Y217F); test: EC50 dose response of LGIC ligands on PSAM4-5HT3; settings: read-out: EC50s (SEM) for additional mutations of α7^L131G, Q139L, Y217F -5HT3
T21 construct: expressed in transfected cells; host or cells: HEK 293

[22] = molecular target: T22, α7^L131G,Q139L,Y217F-5HT3 H163T (Homo sapiens, UniProt P36544, H163T/L131G/M226I/Q139L/T225I/Y217F); test: EC50 dose response, PSAM4-5HT3 with additional mutations; settings: additional mutation H163T; read-out: EC50s (SEM) for additional mutations of α7^L131G, Q139L, Y217F -5HT3
T22 construct: expressed in transfected cells; host or cells: HEK 293

[23] = molecular target: T23, α7^L131G,Q139L,Y217F-5HT3 H163D (Homo sapiens, UniProt P36544, H163D/L131G/M226I/Q139L/T225I/Y217F); test: as above; settings: additional mutation H163D; read-out: EC50s (SEM) for additional mutations of α7^L131G, Q139L, Y217F -5HT3
T23 construct: expressed in transfected cells; host or cells: HEK 293

[24] = molecular target: T24, α7^L131G,Q139L,Y217F-5HT3 H163N (Homo sapiens, UniProt P36544, H163N/L131G/M226I/Q139L/T225I/Y217F); test: as above; settings: additional mutation H163N; read-out: EC50s (SEM) for additional mutations of α7^L131G, Q139L, Y217F -5HT3
T24 construct: expressed in transfected cells; host or cells: HEK 293

[25] = molecular target: T25, α7^L131G,Q139L,Y217F-5HT3 V154L, R155Y, W156Q (Homo sapiens, UniProt P36544, L131G/M226I/Q139L/R155Y/T225I/V154L/W156Q/Y217F); test: as above; settings: read-out: EC50s (SEM) for additional mutations of α7^L131G, Q139L, Y217F -5HT3
T25 construct: expressed in transfected cells; host or cells: HEK 293
T25 sequence (P36544 with tags, fused parts or gaps L131G/Q139L/V154L/R155Y/W156Q/Y217F/T225I/M226I limits assumed): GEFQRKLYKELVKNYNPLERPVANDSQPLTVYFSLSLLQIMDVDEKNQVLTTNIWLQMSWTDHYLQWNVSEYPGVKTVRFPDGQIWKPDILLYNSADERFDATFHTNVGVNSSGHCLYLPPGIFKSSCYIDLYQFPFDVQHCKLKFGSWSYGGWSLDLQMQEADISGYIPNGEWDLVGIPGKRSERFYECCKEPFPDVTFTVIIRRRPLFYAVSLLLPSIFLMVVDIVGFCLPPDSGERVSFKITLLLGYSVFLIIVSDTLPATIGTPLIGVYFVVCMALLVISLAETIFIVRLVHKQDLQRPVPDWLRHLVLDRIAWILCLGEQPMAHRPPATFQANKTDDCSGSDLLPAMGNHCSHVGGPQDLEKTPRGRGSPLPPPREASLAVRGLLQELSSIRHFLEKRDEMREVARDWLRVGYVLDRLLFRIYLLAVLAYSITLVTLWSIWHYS

T21 sequence (P36544 with tags, fused parts or gaps L131G/Q139L/Y217F/T225I/M226I limits assumed): as the sequence (P36544 with tags, fused parts or gaps L131G/Q139L/V154L/R155Y/W156Q/Y217F/T225I/M226I limits assumed) above, with L132V, Y133R, Q134W counted along it
T11 sequence (P36544 with tags, fused parts or gaps L131G/Q139L/H163S/Y217F/T225I/M226I limits assumed): as the sequence (P36544 with tags, fused parts or gaps L131G/Q139L/V154L/R155Y/W156Q/Y217F/T225I/M226I limits assumed) above, with L132V, Y133R, Q134W, H141S counted along it
T8 sequence (P36544 with tags, fused parts or gaps L131G/Q139L/S172V/Y217F/T225I/M226I limits assumed): as the sequence (P36544 with tags, fused parts or gaps L131G/Q139L/V154L/R155Y/W156Q/Y217F/T225I/M226I limits assumed) above, with L132V, Y133R, Q134W, S150V counted along it
T6 sequence (P36544 with tags, fused parts or gaps L131G/Q139L/H163T/S172V/Y217F/T225I/M226I limits assumed): as the sequence (P36544 with tags, fused parts or gaps L131G/Q139L/V154L/R155Y/W156Q/Y217F/T225I/M226I limits assumed) above, with L132V, Y133R, Q134W, H141T, S150V counted along it
T3 sequence (P36544 with tags, fused parts or gaps L131G/Q139L/H163F/Y217F/T225I/M226I limits assumed): as the sequence (P36544 with tags, fused parts or gaps L131G/Q139L/V154L/R155Y/W156Q/Y217F/T225I/M226I limits assumed) above, with L132V, Y133R, Q134W, H141F counted along it
T22 sequence (P36544 with tags, fused parts or gaps L131G/Q139L/H163T/Y217F/T225I/M226I limits assumed): as the sequence (P36544 with tags, fused parts or gaps L131G/Q139L/V154L/R155Y/W156Q/Y217F/T225I/M226I limits assumed) above, with L132V, Y133R, Q134W, H141T counted along it
T14 sequence (P36544 with tags, fused parts or gaps L131G/Q139L/W156N/Y217F/T225I/M226I limits assumed): as the sequence (P36544 with tags, fused parts or gaps L131G/Q139L/V154L/R155Y/W156Q/Y217F/T225I/M226I limits assumed) above, with L132V, Y133R, Q134N counted along it
T16 sequence (P36544 with tags, fused parts or gaps L131G/Q139L/V154I/R155Y/W156N/Y217F/T225I/M226I limits assumed): as the sequence (P36544 with tags, fused parts or gaps L131G/Q139L/V154L/R155Y/W156Q/Y217F/T225I/M226I limits assumed) above, with L132I, Q134N counted along it
T19 sequence (P36544 with tags, fused parts or gaps L131G/Q139L/S172A/Y217F/T225I/M226I limits assumed): as the sequence (P36544 with tags, fused parts or gaps L131G/Q139L/V154L/R155Y/W156Q/Y217F/T225I/M226I limits assumed) above, with L132V, Y133R, Q134W, S150A counted along it
T20 sequence (P36544 with tags, fused parts or gaps L131G/Q139L/V154I/R155Y/W156N/S172V/Y217F/T225I/M226I limits assumed): as the sequence (P36544 with tags, fused parts or gaps L131G/Q139L/V154L/R155Y/W156Q/Y217F/T225I/M226I limits assumed) above, with L132I, Q134N, S150V counted along it

## C[N+](C)(C)CCO [Choline, choline, reference compound]
[1]
  EC50: 2060 µM
[2]
  EC50: 680 µM
[3]
  EC50: 230 µM
[4]
  EC50: 1110 µM
[5]
  EC50: 168 µM
[6]
  EC50: 1330 µM
[7]
  EC50: 219 µM
[8]
  EC50: 895 µM
[9]
  EC50: 508 µM
[10]
  EC50: 1160 µM
[11]
  EC50: 245 µM
[12]
  EC50: 177 µM
[13]
  EC50: 832 µM
[14]
  EC50: 172 µM
[15]
  EC50: 646 µM
[16]
  EC50: 330 µM
[17]
  EC50: 153 µM
[18]
  EC50: 1020 µM
[19]
  EC50: 349 µM
[20]
  EC50: 910 µM
[21]; PSAM4-5HT3 (no additional mutation)
  EC50: 143 µM
[21]; line L131G, Q139L, Y217F (same values as PSAM4-5HT3 line)
  EC50: 143 µM
[22]
  EC50: 330 µM
[23]
  EC50: 361 µM
[24]
  EC50: 107 µM
[25]
  EC50: 94 µM
